{"source": "patent US11077177B2", "about": "“Universal cancer vaccine” (priority 2016, dated 2021)", "key": {"[1]": {"test_system": "HLA molecule (types A1, A2, A3, A11, A24, B7 and B44)", "test": "HLA type bound by altered telomerase peptides (Table 1)", "format": "binding, human", "conditions": "MHC class I HLA type bound by the peptide; no test method described; listed as SEQ ID NO: 13"}, "CD 8+ T cell repertoire": {"test_system": "CD 8+ T cell repertoire", "test": "Tetramer staining of peripheral blood mononuclear cells by flow cytometry after immunization with an altered peptide (FIG. 3B)", "format": "cell-based"}}, "data": [{"sequence": "YLFFYRKSV (listed as Homo sapiens) [SEQ ID 13]", "values": [{"measurement": "HLA TYPE BOUND", "setting": "[1]", "result": "HLA-A2"}, {"measurement": "expansion of CD 8+ T cell repertoire cross-reacting with the naturally occurring peptide", "setting": "CD 8+ T cell repertoire", "result": "this approach is feasible"}]}]}
